# Patent US12473250B2, “Molecular design of new antibiotics and antibiotic adjuvants against MCR strains” (priority 2019, dated 2025)
# Test system: various pathogens
# Experiment: organism not typed
# Type: cell-based
# Summary of the method: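 Broth microdilution MIC per CLSI: each agent alone and LC compound plus antibiotic (e.g. colistin) combined in equal amounts, serially diluted 2-fold at fixed synergy concentration.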
substance,measurement,setting,value
Colistin,FOLD CHANGES [Absorbance (abs; OD 600 nm)] No Treatment [Bacteria alone]: Colistin 0.5 μg,E. Coli CRE 19211,1.17
same,FOLD CHANGES [Absorbance (abs; OD 600 nm)] No Treatment [Bacteria alone]: MIC Colistin,E. Coli CRE 19211,20.56
same,MIC,E. Coli CRE 19211,1.56 µg/mL
same,FOLD CHANGES [Absorbance (abs; OD 600 nm)] No Treatment [Bacteria alone]: Colistin 0.5 μg,E. Coli CRE 34685,1.49
same,FOLD CHANGES [Absorbance (abs; OD 600 nm)] No Treatment [Bacteria alone]: MIC Colistin,E. Coli CRE 34685,22.63
same,MIC,E. Coli CRE 34685,0.78 µg/mL
same,FOLD CHANGES [Absorbance (abs; OD 600 nm)] No Treatment [Bacteria alone]: Colistin 0.5 μg,E. Coli DB 16027R,1.23
same,FOLD CHANGES [Absorbance (abs; OD 600 nm)] No Treatment [Bacteria alone]: MIC Colistin,E. Coli DB 16027R,14.89
same,MIC,E. Coli DB 16027R,0.78 µg/mL
same,FOLD CHANGES [Absorbance (abs; OD 600 nm)] No Treatment [Bacteria alone]: Colistin 0.5 μg,KLPN ATCC 4352,1.81
same,FOLD CHANGES [Absorbance (abs; OD 600 nm)] No Treatment [Bacteria alone]: MIC Colistin,KLPN ATCC 4352,3.54
same,MIC,KLPN ATCC 4352,0.78 µg/mL
same,FOLD CHANGES [Absorbance (abs; OD 600 nm)] No Treatment [Bacteria alone]: Colistin 0.5 μg,KLPN ATCC 10031,1.25
same,FOLD CHANGES [Absorbance (abs; OD 600 nm)] No Treatment [Bacteria alone]: MIC Colistin,KLPN ATCC 10031,10.11
same,MIC,KLPN ATCC 10031,1.56 µg/mL
same,FOLD CHANGES [Absorbance (abs; OD 600 nm)] No Treatment [Bacteria alone]: Colistin 0.5 μg,KLPN ATCC 27736,1.21
same,FOLD CHANGES [Absorbance (abs; OD 600 nm)] No Treatment [Bacteria alone]: MIC Colistin,KLPN ATCC 27736,9.67
same,MIC,KLPN ATCC 27736,0.78 µg/mL
same,FOLD CHANGES [Absorbance (abs; OD 600 nm)] No Treatment [Bacteria alone]: Colistin 0.5 μg,KLPN ATCC 35657,1.57
same,FOLD CHANGES [Absorbance (abs; OD 600 nm)] No Treatment [Bacteria alone]: MIC Colistin,KLPN ATCC 35657,13.49
same,MIC,KLPN ATCC 35657,1.56 µg/mL
same,FOLD CHANGES [Absorbance (abs; OD 600 nm)] No Treatment [Bacteria alone]: Colistin 0.5 μg,KLPN ATCC 700603,1.11
same,FOLD CHANGES [Absorbance (abs; OD 600 nm)] No Treatment [Bacteria alone]: MIC Colistin,KLPN ATCC 700603,9.64
same,MIC,KLPN ATCC 700603,1.56 µg/mL
same,FOLD CHANGES [Absorbance (abs; OD 600 nm)] No Treatment [Bacteria alone]: Colistin 0.5 μg,KLPN CRE 7955,1.64
same,FOLD CHANGES [Absorbance (abs; OD 600 nm)] No Treatment [Bacteria alone]: MIC Colistin,KLPN CRE 7955,10.28
same,MIC,KLPN CRE 7955,1.56 µg/mL
same,FOLD CHANGES [Absorbance (abs; OD 600 nm)] No Treatment [Bacteria alone]: Colistin 0.5 μg,KLPN CRE 15588,2.50
same,FOLD CHANGES [Absorbance (abs; OD 600 nm)] No Treatment [Bacteria alone]: MIC Colistin,KLPN CRE 15588,7.39
same,MIC,KLPN CRE 15588,0.78 µg/mL
same,FOLD CHANGES [Absorbance (abs; OD 600 nm)] No Treatment [Bacteria alone]: Colistin 0.5 μg,KLPN CRE 16260,1.06
same,MIC,KLPN CRE 16260,>50 µg/mL
same,FOLD CHANGES [Absorbance (abs; OD 600 nm)] No Treatment [Bacteria alone]: Colistin 0.5 μg,KLPN CRE 27025,5.24
same,FOLD CHANGES [Absorbance (abs; OD 600 nm)] No Treatment [Bacteria alone]: MIC Colistin,KLPN CRE 27025,11.84
same,MIC,KLPN CRE 27025,0.78 µg/mL
same,FOLD CHANGES [Absorbance (abs; OD 600 nm)] No Treatment [Bacteria alone]: Colistin 0.5 μg,KLPN CRE 55301,1.09
same,FOLD CHANGES [Absorbance (abs; OD 600 nm)] No Treatment [Bacteria alone]: MIC Colistin,KLPN CRE 55301,9.00
same,MIC,KLPN CRE 55301,0.78 µg/mL
same,FOLD CHANGES [Absorbance (abs; OD 600 nm)] No Treatment [Bacteria alone]: Colistin 0.5 μg,PAE ATCC 9027,0.98
same,FOLD CHANGES [Absorbance (abs; OD 600 nm)] No Treatment [Bacteria alone]: MIC Colistin,PAE ATCC 9027,8.80
same,MIC,PAE ATCC 9027,1.56 µg/mL
same,FOLD CHANGES [Absorbance (abs; OD 600 nm)] No Treatment [Bacteria alone]: Colistin 0.5 μg,PAE ATCC 9721,1.01
same,FOLD CHANGES [Absorbance (abs; OD 600 nm)] No Treatment [Bacteria alone]: MIC Colistin,PAE ATCC 9721,5.80
same,MIC,PAE ATCC 9721,1.56 µg/mL
same,FOLD CHANGES [Absorbance (abs; OD 600 nm)] No Treatment [Bacteria alone]: Colistin 0.5 μg,PAE ATCC 15442,1.03
same,FOLD CHANGES [Absorbance (abs; OD 600 nm)] No Treatment [Bacteria alone]: MIC Colistin,PAE ATCC 15442,14.00
same,MIC,PAE ATCC 15442,1.56 µg/mL
same,FOLD CHANGES [Absorbance (abs; OD 600 nm)] No Treatment [Bacteria alone]: Colistin 0.5 μg,PAE ATCC 27853,0.96
same,FOLD CHANGES [Absorbance (abs; OD 600 nm)] No Treatment [Bacteria alone]: MIC Colistin,PAE ATCC 27853,8.35
same,MIC,PAE ATCC 27853,0.78 µg/mL
same,FOLD CHANGES [Absorbance (abs; OD 600 nm)] No Treatment [Bacteria alone]: Colistin 0.5 μg,PAE ATCC BAA-1744,1.11
same,FOLD CHANGES [Absorbance (abs; OD 600 nm)] No Treatment [Bacteria alone]: MIC Colistin,PAE ATCC BAA-1744,6.81
same,MIC,PAE ATCC BAA-1744,1.56 µg/mL
same,FOLD CHANGES [Absorbance (abs; OD 600 nm)] No Treatment [Bacteria alone]: Colistin 0.5 μg,PAE DM 4150,1.02
same,FOLD CHANGES [Absorbance (abs; OD 600 nm)] No Treatment [Bacteria alone]: MIC Colistin,PAE DM 4150,10.34
same,MIC,PAE DM 4150,3.125 µg/mL
same,FOLD CHANGES [Absorbance (abs; OD 600 nm)] No Treatment [Bacteria alone]: Colistin 0.5 μg,PAE DM 23155,1.30
same,FOLD CHANGES [Absorbance (abs; OD 600 nm)] No Treatment [Bacteria alone]: MIC Colistin,PAE DM 23155,7.00
same,MIC,PAE DM 23155,1.56 µg/mL
same,FOLD CHANGES [Absorbance (abs; OD 600 nm)] No Treatment [Bacteria alone]: Colistin 0.5 μg,PAE DM 23257,1.02
same,FOLD CHANGES [Absorbance (abs; OD 600 nm)] No Treatment [Bacteria alone]: MIC Colistin,PAE DM 23257,7.71
same,MIC,PAE DM 23257,1.56 µg/mL
same,FOLD CHANGES [Absorbance (abs; OD 600 nm)] No Treatment [Bacteria alone]: Colistin 0.5 μg,PAE DM 23376,0.93
same,FOLD CHANGES [Absorbance (abs; OD 600 nm)] No Treatment [Bacteria alone]: MIC Colistin,PAE DM 23376,8.00
same,MIC,PAE DM 23376,1.56 µg/mL
same,FOLD CHANGES [Absorbance (abs; OD 600 nm)] No Treatment [Bacteria alone]: Colistin 0.5 μg,PAE DR 4877,1.30
same,FOLD CHANGES [Absorbance (abs; OD 600 nm)] No Treatment [Bacteria alone]: MIC Colistin,PAE DR 4877,12.00
same,MIC,PAE DR 4877,1.56 µg/mL
same,FOLD CHANGES [Absorbance (abs; OD 600 nm)] No Treatment [Bacteria alone]: Colistin 0.5 μg,PAE DR 5790,1.06
same,FOLD CHANGES [Absorbance (abs; OD 600 nm)] No Treatment [Bacteria alone]: MIC Colistin,PAE DR 5790,10.25
same,MIC,PAE DR 5790,0.78 µg/mL
same,FOLD CHANGES [Absorbance (abs; OD 600 nm)] No Treatment [Bacteria alone]: Colistin 0.5 μg,PAE DU 14476,0.90
same,FOLD CHANGES [Absorbance (abs; OD 600 nm)] No Treatment [Bacteria alone]: MIC Colistin,PAE DU 14476,7.21
same,MIC,PAE DU 14476,1.56 µg/mL
